Test results from US8247383B2, “Drug-carrier complexes and methods of use thereof” (The General Hospital Corporation, priority 1999, dated 2012).
Where two headings read alike, the source gives them in different places. d = 2'-deoxy (DNA); r = 2'-OH (RNA)

Assays:
[1] = test system: antifluorescein rabbit IgG; assay: Steric protection: kinetics of fluorescein quenching by anti-fluorescein IgG; type: binding; details: polymer chains positioned within 2 and 9 bases of fluorescein; 10-fold anti-fluorescein IgG, 20 mM PBS, pH=7.5
Description: To determine the degree of steric protection of the nucleotide core by polymer chains, a series of double-stranded oligonucleotides were synthesized. A model antigen (fluorescein) and a model protective chain (polyethyleneglycol) were positioned on the oligonucleotide at various distances. Then kinetics of fluorescein moiety interactions with fluorescence-quenching antifluorescein rabbit IgG (Molecular Probes, Oreg.) was determined to evaluate the degree of steric protection. The latter was investigated as a function of the distance between the antigen and the protective chain. Four 5′-amino modified oligonucleotides with the same sequence 5′-TTT-CTC-TCT-CTC-TCT-CTC-TCT-3′ (SEQ ID NO: 5) were obtained from a commercial source. […]
The resultant double-stranded oligonucleotides were purified by SEC HPLC and modified, through the 5′-aminogroup of the first strand, with N-hydroxysuccinimide ester of carboxy-polyethyleneglycol (MW=2 kDa and 20 kDa), and with N-hydroxysuccinimide ester of branched “PEG2” polyethyleneglycol (10 kDa). […] Fluorescein—antibody interaction was registered by quenching of the fluorescein fluorescence by the antibody. Fluorescence was registered at 515 nm (excitation at 490 nm). The kinetics of fluorescence quenching depended on the position of the fluorescein moiety relative to the polymer chain.

[2] = cited from earlier work
outbred mice [3] = assay: Adduct toxicity in vivo; details: observed for 30 days
Description: Adduct toxicity in vivo. […] Bis-intercalator content was one molecule per 6 base pairs of the nucleotide core. […] The adduct and free bis-intercalator were administered intravenously, as described above, into male outbred mice (30±2 g, n=4 per group) at 30 mg/kg by bis-intercalator. In a third group, unloaded carrier was injected at 100 mg/kg within 15 minutes after the administration of 30 mg/kg of bis-doxorubicin.

[4] = test system: human epithelial cells (kidney, line 293); assay: Carrier and adduct toxicity in cell culture (Trypan Blue staining); type: cell-based; details: control experiment, confluent and growing cultures
Description: Carrier toxicity in cell culture. Unloaded carriers (Example 7) were tested in near confluent culture of human epithelial cells (kidney, line 293, from ATCC #CRL 1573) in DMEM with 5% calf serum. Carriers were added to the cell culture at various concentrations, from 1 mg/ml to 1 mg/ml. Cell survival rate was determined by staining with Trypan Blue after a 16-hour incubation.
Adduct toxicity in cell culture. Doxorubicin-loaded carriers (Example 12) were tested in near confluent and growing cultures of human epithelial cells (kidney, line 293) in DMEM containing 5% calf serum. […] Cell survival rate was determined by staining with Trypan Blue after a 16-hour incubation.

[5] = Doxorubicin biodistribution (14C tissue radioactivity); type: in vivo, mice; details: 0.3 mg/kg via tail vein, 20 hours after injection
Description: (^14C)doxorubicin-loaded carriers (Example 12) and free (^14C)doxorubicin (control) were injected into normal outbred mice (males, 30 g) via tail vein, at 0.3 mg/kg. Biodistribution was studied by measuring tissue radioactivity 20 hours after injection. Tissue samples were disintegrated, solubilized, mixed with a scintillation cocktail and counted on a scintillation counter.

[6] = Lyophilization and reconstitution in PBS with membrane filtration; type: physicochemical; details: one milligram by doxorubicin in 0.1 ml of 50 mM PBS, pH=7
Description: The adducts obtained as described in Examples 2 and 3 were used in a lyophilized form. Doxorubicin powder (Sigma Chemical Co., St. Louis, Mo.) and lyophilized “Doxorubicin for injection” were used as control preparations. Each of the four preparations, in the amount of one milligram by doxorubicin, were suspended in 0.1 ml of a 50 mM PBS, pH=7. […] The resultant solutions oligonucleotide-doxorubicin adduct solutions were filtered through […] PTFE membrane filters; doxorubicin was recovered in the filtrates with at least 98% yield (by adsorption at 470 nm).

outbred mice [7] = assay: Carrier toxicity in vivo; details: 100 mg/kg intravenously, observed for 30 days
Description: Carrier toxicity in vivo.

[8] = Carrier biokinetics (3H-labeled carriers, blood); type: in vivo; details: 1 mg/kg via tail vein, mice
Description: Unloaded carriers (Example 8) were labeled with tritium (^3H). Carriers were oxidized with periodate to produce aldehyde groups on the 3′-ribonucleotide base present in the structure, and reacted with [^3H] borohydride to introduce tritium into carrier core structure. Carriers were purified on Sephadex G-25 and injected at 1 mg/kg into normal outbred mice (males, 30 g) via tail vein. Blood samples were collected at different time points and counted. The blood half-lives were ca. 30 min and 10 hours for unprotected and PHF-protected carriers, respectively.

[9] = type: physicochemical
Description: An oligonucleotide with arbitrarily chosen […] sequence, 5′CGTCGACGTCGAATATACGC (SEQ ID NO: 3), and a complementary 5′-amino modified oligonucleotide 5′GC GTA TAT TCG ACG TCG ACG (SEQ ID NO: 4) were purchased from a commercial vendor. To form a double stranded oligonucleotide, the single-stranded oligonucleotides were hybridized and lyophilized as described in Example 1. The resultant double stranded oligonucleotide was stable at ambient (25° C.) and body temperature (37° C.).

[10] = parameters: species or system mice; details: mouse, in vivo, iv
Description: An arbitrarily chosen 5-amino modified 18-base phosphodiester oligonucleotide 5° […] (SEQ ID NO: 11), 0.11 mg, was modified with trace amount of ethylenediaminetraacetic anhydride and hybridized with (a) a complementary oligonucleotide, 5′[…] (SEQ ID NO: 12), and (b) analogous complementary oligonucleotide amino modified at both 5′ and 3′ ends and at positions 4, 9 and 15 (from 5′). The hybridized amino modified DSO was incubated with 1 ml of 10 mg/ml solution of N-hydroxycuccinimido-polyethyleneglycol, MW=10 kDa, at pH=8 for 8 hours. The products, PEG-modified double stranded oligonucleotides, were isolated by HPLC. Both PEG-modified and unmodified double stranded oligonucleotides were labeled with 111 in 0.5 M citrate buffer solution, pH=5.6. Labeled preparations were purified by SEC HPLC. Each was divided into 4 equal doses and administered intravenously to outbred mice (n=4 in each group, male, 31±2 g). Blood samples were taken immediately after injection, then at 0.25, 0.5, 1, 2, 4 and 8 hours.

For “2 kDa polymer: fluorescein-labeled double-stranded oligonucleotide (SEQ ID NO: 5/6) modified at 5′-amino group with 2 kDa polyethyleneglycol (chain 1 TTTCTCTCTCTCTCTCTCTCT; chain 2 AGAGAGAGAGAGAGAGAGAAAA; fluorescein, 2 kDa PEG, chemistry not fully specified)”, the “decrease of the kinetic constant of fluorescein-antibody interaction” value [1] was 20%.
With “20 kDa polymer: fluorescein-labeled double-stranded oligonucleotide (SEQ ID NO: 5/6) modified at 5′-amino group with 20 kDa polyethyleneglycol (chain 1 TTTCTCTCTCTCTCTCTCTCT; chain 2 AGAGAGAGAGAGAGAGAGAAAA; 5'-amino linked 20 kDa PEG, fluorescein on an internal base, further chemistry not given here)” the “decrease of the kinetic constant of fluorescein-antibody interaction” value [1] was 80%.
In the case of C[C@H](CNCCNC[C@@H](C)N1C(=O)c2cccc3cc([N+](=O)[O-])cc(c23)C1=O)N1C(=O)c2cccc3cc([N+](=O)[O-])cc(c23)C1=O [DMP 840], the “solubility at physiological pH” value [2] is given as “limited solubility”.
In the case of COc1cccc2c1C(=O)c1c(O)c3c(c(O)c1C2=O)C[C@@](O)(C(C)=O)C[C@@H]3O[C@H]1C[C@H](NCc2ccc(CN[C@H]3C[C@H](O[C@H]4C[C@](O)(C(C)=O)Cc5c(O)c6c(c(O)c54)C(=O)c4c(OC)cccc4C6=O)O[C@@H](C)[C@H]3O)cc2)[C@H](O)[C@H](C)O1 [WP-631], the survival (outbred mice [3]; 30 mg/kg bis-doxorubicin, then unloaded carrier 100 mg/kg within 15 minutes) is listed as “all animals survived”, the survival (outbred mice [3]; 30 mg/kg by bis-intercalator intravenously, n=4 per group) is listed as “only one animal survived” and the “solubility at physiological pH” value [2] is listed as “limited solubility”.
For COc1cccc2c1C(=O)c1c(O)c3c(c(O)c1C2=O)C[C@@](O)(C(=O)CO)C[C@@H]3O[C@H]1C[C@H](N)[C@H](O)[C@H](C)O1 [doxorubicin, Doxorubicin], the “cytotoxic effects compared with doxorubicin-loaded carriers” value [4] was “essentially the same cytotoxic effects”, the “label distribution to liver” value [5] was 3±0.6 % dose/g and the “label distribution to lung” value [5] was 4.6±1.6 % dose/g. For the same compound, the “label content in skeletal muscle” value ([5]; mean±standard deviation) was 2±0.4 % dose/g, the “dissolution on suspending the preparation” value [6] was “formed suspensions” and the “solubility at physiological pH” value [2] was “limited solubility”.
With “PHF-protected carriers: amino modified double-stranded oligonucleotide (SEQ ID NO: 9/8) conjugated with 10 kDa PHF (chain 1 ATGGCGCACGCTGGGAGAC; chain 2 TCTCCCAGCGTGCGCCATC; sugars from the 5' end d18 r1, backbone and methylation of C not given here; amino modifications at positions 1, 2, 12, 19 of first strand, PHF polymer conjugated)” the signs of toxicity (outbred mice [7]) was “None of the animals showed signs of toxicity”, the survival (outbred mice [7]; n=6) was “All animals survived” and the blood half-life [8] was roughly 10 h.
For “double stranded oligonucleotide: hybrid of 5′CGTCGACGTCGAATATACGC (SEQ ID NO: 3) and complementary 5′-amino modified SEQ ID NO: 4 (chain 1 CGTCGACGTCGAATATACGC; chain 2 GCGTATATTCGACGTCGACG; complementary strand carries 5'-amino modification, further chemistry not given here)”, the “stability of double stranded oligonucleotide” value [9] was “stable”.
With “unmodified double stranded oligonucleotides: labeled SEQ ID NO: 11 hybridized with complementary SEQ ID NO: 12 (chain 1 CGTCGACGTCGAATATACGC; chain 2 GCGTATATTCGACGTCGACG; DNA, phosphodiester; one strand carries an unspecified label)” the blood half-life [10] was 12 ± 5 min.
With “unprotected carriers: double-stranded carrier from unmodified oligonucleotides SEQ ID NO: 7 and 8 (chain 1 ATGGCGCACGCTGGGAGA; chain 2 TCTCCCAGCGTGCGCCATC; chain 1: DNA, backbone and methylation of C not given here; chain 2: sugars from the 5' end d18 r1, all phosphodiester, methylation of C not given here)” the blood half-life [8] was “ca. 30 min”.
